Assay results as given in patent US20150037399A1, “NOVEL USE OF PIPOXOLAN AND ITS PHARMACEUTICAL COMPOSITION” (China Medical University, priority 2013, published 2015).

Legend:
[1] = system: cerebral infarction area in the brain of ischemic rats; assay: Transient focal cerebral ischemia-reperfusion model, infarct area (TTC staining); format: in vivo, Sprague-Dawley (SD) rats; settings: 24 hr after reperfusion, vs control group
Experimental: Animals are male Sprague-Dawley (SD) rats, weighing 225-275 g and male ICR mice, weighing 25-30 g were purchased from BioLASCO Co. Ltd. (Taipei, Taiwan). All animals were fed regular chow and housed in standard cages at a constant temperature of 22±1° C. and relative humidity of 55±5% with 12 hr inverted light-dark cycle for 1 week prior to the experiments. Surgery was performed under zoletil® anesthesia. Five to six animals were used to obtain consistent data in each group. Pipoxolan was dissolved in dimethylsulfoxide (DMSO) and diluted in tissue culture medium before use. Focal ischemia was induced by occlusion of both common carotid arteries (CCA) and the right middle cerebral artery (MCA). Eighteen rats were randomly assigned to 3 treatment groups, six rats for each group. Group 1 rats were treated with saline and groups 2 and 3 treated with pipoxolan (10 mg/kg and 30 mg/kg, respectively). Rats were fasted overnight with free access to water. […] After 24 hr, all rats were alive and neurobehavioral deficits evaluation and infarct assessment were performed Twenty four hours following reperfusion, neurological function of rats was assessed. […] The image of each section was digitized and the infarct area was determined morphometrically using Image-Pro Plus 6.0 (Media Cybernetics, Md., USA).

[2] = system: neurological deficits in ischemic rats; assay: Evaluation of neurological deficits after ischemia-reperfusion; format: in vivo, Sprague-Dawley (SD) rats; settings: 24 hr after reperfusion; for neurological deficits (score 0-5): mean±SE
Experimental: Focal ischemia was induced by occlusion of both common carotid arteries (CCA) and the right middle cerebral artery (MCA). Eighteen rats were randomly assigned to 3 treatment groups, six rats for each group. Group 1 rats were treated with saline and groups 2 and 3 treated with pipoxolan (10 mg/kg and 30 mg/kg, respectively). Rats were fasted overnight with free access to water. Pipoxolan (10, 30 mg/kg) was orally administered 1 hr prior to transient focal cerebral ischemia-reperfusion. Animals then were anesthetized with zoletil® (25 mg/kg i.p.), and the skull was exposed, and a small burr hole was produced over the MCA. Beneath the right MCA, proximal to the major bifurcation of the right MCA, distal to the lenticulostriate arteries, and rostral to the rhinal fissure, a 10-0 nylon monofilament was placed. The artery then was lifted and the nylon filament rotated clockwise. Both CCA were then occluded using a microvascular clip. After 90 minutes of occlusion, reperfusion was established by removing the microvascular clips from the CCA, rotating the nylon monofilament counterclockwise and removing it from beneath the MCA. After 24 hr, all rats were alive and neurobehavioral deficits evaluation and infarct assessment were performed Twenty four hours following reperfusion, neurological function of rats was assessed. The degree of neurological deficits were divided 0-5 (higher score is for more severe neurological deficits) as follows: 0=no neurological deficits, 1=failure to extend left forepaw fully, 2=circling to the left, 3=falling to left, 4=no spontaneous walking with a depressed level of consciousness, and 5=death. Neurological evaluation was done by an observer who was blind to the treatment conditions of the animals. After completion of the neurobehavioral evaluation, rats were deeply anesthetized by an intraperitoneal injection of zoletil® (50 mg/kg) followed by intracardiac perfusion with 200 ml of freezing PBS and animals were then decapitated. The brain was removed and sliced in 2-mm sections using a rodent brain matrix slicer. The sections were stained with 2% 2,3,5-triphenyltetrazoliumchloride (TTC) for 10 min at 37° C. and fixed in 10% formalin. The image of each section was digitized and the infarct area was determined morphometrically using Image-Pro Plus 6.0 (Media Cybernetics, Md., USA).

[3] = system: Ras; assay: Western blot of Ras in PDGF-BB-stimulated VSMCs; format: cell-based
Experimental: (§1) The role of matrix metalloproteinase-2/9 (MMP-2/9) and the Ras/MEK/ERK signaling pathways were used to evaluate the effect of pipoxolan on VSMCs migration. The protein expression levels were determined by Western blot analysis. Each vertical bars represented mean±S.E. **p<0.01 and ***p<0.001 compared with control group (n=6 in each group).

[4] = system: MEK; assay: Western blot of MEK in PDGF-BB-stimulated VSMCs; format: cell-based
Experimental: as §1

[5] = system: p-ERK; assay: Western blot of p-ERK in PDGF-BB-stimulated VSMCs; format: cell-based
Experimental: as §1

[6] = system: MMP-9; assay: Western blot of MMP-9 in PDGF-BB-stimulated VSMCs; format: cell-based; settings: Rattus norvegicus, VSMC, read-out: inhibition of MMP-9 level
Experimental: as §1

For `Cl.O=C1OC(CCN2CCCCC2)OC1(c1ccccc1)c1ccccc1` (stereo not drawn) [pipoxolan, 5,5-diphenyl-2-(2-piperidin-1-ylethyl)-1,3-dioxolan-4-one hydrochloride], the “percent reduction of cerebral infarction” value ([1]; 10 mg/kg p.o. 1 hr prior to ischemia) was 43.18%, the “percent reduction of cerebral infarction” value ([1]; 30 mg/kg p.o. 1 hr prior to ischemia) was 73.43% and the “reduction of neurological deficits” value ([2]; 10 mg/kg p.o.) was 31.25%. The “neurological deficits (score 0-5)” value ([2]; 10 mg/kg p.o.) was 2.20±0.20, the “reduction of neurological deficits” value ([2]; 30 mg/kg p.o.) was 46.88% and the “neurological deficits (score 0-5)” value ([2]; 30 mg/kg p.o.) was 1.7±0.21. For the same compound, the “reduction of Ras protein level” value ([3]; 5 μM) was 21%, the “reduction of Ras protein level” value ([3]; 10 μM) was 24.75% and the “reduction of Ras protein level” value ([3]; 15 μM) was 24%. The “reduction of MEK protein level” value ([4]; 5 μM) was 21.67%, the “reduction of MEK protein level” value ([4]; 10 μM) was 21% and the “reduction of MEK protein level” value ([4]; 15 μM) was 26.67%. The “reduction of p-ERK protein level” value ([5]; 5 μM) was 50.33%, the “reduction of p-ERK protein level” value ([5]; 10 μM) was 51.67% and the “reduction of p-ERK protein level” value ([5]; 15 μM) was 75%. The inhibition at 5 µM ([6]; 5 μM) was 39.4%, the inhibition at 10 µM ([6]; 10 μM) was 45.4% and the inhibition at 15 µM ([6]; 15 μM) was 36.6%.
